{"source": "patent US9084770B2", "about": "“Modulation of insulin like growth factor I receptor expression in cancer” (Antisense Therapeutics, Ltd., priority 2008, dated 2015)"}
{"tested_on": "human IGF-IR mRNA", "assay": "Antisense inhibition of human IGF-IR mRNA levels by quantitative RT-PCR (Table 1)", "assay_type": "cell-based", "set-up": "%INHIB (human IGF-IR mRNA levels): concentration or dose not given beside the values", "settings": "as shown in Table 1", "from_the_text": "(§1) Treatment of A549 cell cultures with oligonucleotides targeting IGF-IR is as described in WO 2004/072284.\n(§2) Quantitation of IGF-IR mRNA levels was accomplished by RT-PCR using the ABI PRISM (trademark) 7600, 7700, or 7900 Sequence Detection System (PE-Applied Biosystems, Foster City, Calif.) according to manufacturer's instructions. This is a closed-tube, non-gel-based, fluorescence detection system which allows high-throughput quantitation of PCR products in real-time. As opposed to standard PCR in which amplification products are quantitated after the PCR is completed, products in real-time quantitative PCR are quantitated as they accumulate. This is accomplished by including in the PCR reaction an oligonucleotide probe that anneals specifically between the forward and reverse PCR primers, and contains two fluorescent dyes. A reporter dye (e.g., FAM or JOE, obtained from either PE-Applied Biosystems, Foster City, Calif., Operon Technologies Inc., Alameda, Calif. or Integrated DNA Technologies Inc., Coralville, Iowa) is attached to the 5′-end of the probe and a quencher dye (e.g., TAMRA, obtained from either PE-Applied Biosystems, Foster City, Calif., Operon Technologies Inc., Alameda, Calif. or Integrated DNA Technologies Inc., Coralville, Iowa) is attached to the 3′-end of the probe. When the probe and dyes are intact, reporter dye emission is quenched by the proximity of the 3′ quencher dye. During amplification, annealing of the probe to the target sequence creates a substrate that can be cleaved by the 5′-exonuclease activity of Taq polymerase. […] With each cycle, additional reporter dye molecules are cleaved from their respective probes, and the fluorescence intensity is monitored at regular intervals by laser optics built into the ABI PRISM (trademark) Sequence Detection System. In each assay, a series of parallel reactions containing serial dilutions of mRNA from untreated control samples generates a standard curve that is used to quantitate the percent inhibition after antisense oligonucleotide treatment of test samples.\n(§3) PCR reagents were obtained from Invitrogen Corporation, (Carlsbad, Calif.). RT-PCR reactions were carried out by adding 20 μL PCR cocktail (2.5×PCR buffer minus MgCl2, 6.6 mM MgCl2, 375 μM each of dATP, dCTP, […] and dGTP, 375 nM each of forward primer and reverse primer, 125 nM of probe, 4 Units RNAse inhibitor, 1.25 Units PLATINUM (registered trademark) Taq, 5 Units MuLV reverse transcriptase, and 2.5×ROX dye) to 96-well plates containing 30 μL total RNA solution (20-200 ng). The RT reaction was carried out by incubation for 30 minutes at 48° C. Following a 10 minute incubation at 95° C. to activate the PLATINUM (trademark) Taq, 40 cycles of a two-step PCR protocol were carried out: 95° C. for 15 seconds (denaturation) followed by 60° C. for 1.5 minutes (annealing/extension).\n(§4) Gene target quantities obtained by RT-PCR are normalized using either the expression level of GAPDH, a gene whose expression is constant, or by quantifying total RNA using RiboGreen (trademark) (Molecular Probes, Inc. Eugene, Oreg.). GAPDH expression is quantified by RT-PCR, by being run simultaneously with the target, multiplexing, or separately. Total RNA is quantified using RiboGreen (trademark) RNA quantification reagent (Molecular Probes, Inc. Eugene, Oreg.). Methods of RNA quantification by RiboGreen (trademark) are taught in Jones et al., 1998.\n(§5) Probes and primers to human IGF-IR were designed to hybridize to the IGF-IR nucleotide sequence, using published sequence information (GenBank accession number NM000875 (SEQ ID NO:76) or M69229 (SEQ ID NO:77) which is the 5′ untranslated of the IGF-IR gene sequence (see FIG. 6).\n(§6) In accordance with the present invention, a series of antisense compounds were designed to target different regions of the human IGF-IR mRNA or the 5′ untranslated region, using published sequences set forth in NM000875 (SEQ ID NO:77) and M69229 (SEQ ID NO:76). […]"}
{"substance": "175317 (antisense CGAAGGAAACAATACTCCGA; listed as DNA, chemistry not fully specified) [compound 175317]", "inhibition of IGF-IR expression (lead compounds)": "demonstrated inhibition"}
{"substance": "175323 (antisense AATGAATGAGCGGCTCCCCC; listed as DNA, chemistry not fully specified) [compound 175323]", "inhibition of IGF-IR expression (lead compounds)": "demonstrated inhibition"}
{"substance": "175302 (antisense CCTCCATTTTCAAACCCGGA; listed as DNA, chemistry not fully specified) [compound 175302]", "inhibition of IGF-IR expression (lead compounds)": "demonstrated inhibition"}
{"tested_on": "human IGF-IR mRNA", "assay": "Antisense inhibition of human IGF-IR mRNA levels by quantitative RT-PCR (Table 1)", "assay_type": "cell-based", "set-up": "%INHIB (human IGF-IR mRNA levels): concentration or dose not given beside the values", "settings": "quantitative RT-PCR; averages from 3 experiments", "from_the_text": "as §1, §2, §3, §4, §5, §6", "units": {"%INHIB (human IGF-IR mRNA levels)": "%"}}
{"substance": "323722 (antisense CGGTAGTTGTACTCATTGTT; listed as DNA, chemistry not fully specified) [compound 323722]", "%INHIB (human IGF-IR mRNA levels)": 71}
{"substance": "323696 (antisense CCAGACTTCATTCCTTTTAT; listed as DNA, chemistry not fully specified) [compound 323696]", "%INHIB (human IGF-IR mRNA levels)": 44}
{"substance": "323713 (antisense GTTATTGGACACCGCATCCA; listed as DNA, chemistry not fully specified) [compound 323713]", "%INHIB (human IGF-IR mRNA levels)": 31}
{"substance": "323707 (antisense GAGATTGGTCATCTCGAAGA; listed as DNA, chemistry not fully specified) [compound 323707]", "%INHIB (human IGF-IR mRNA levels)": 20}
{"substance": "175315 (antisense GCAGCGGCCCAGGGCTCGGC; listed as DNA, chemistry not fully specified) [compound 175315]", "%INHIB (human IGF-IR mRNA levels)": 75}
{"substance": "323739 (antisense CTGCTCTCAAAGAAAGGGTA; listed as DNA, chemistry not fully specified) [compound 323739]", "%INHIB (human IGF-IR mRNA levels)": 58}
{"substance": "175301 (antisense AGCCCAAATCTGCCTAGGCG; listed as DNA, chemistry not fully specified) [compound 175301]", "%INHIB (human IGF-IR mRNA levels)": 77}
{"substance": "175309 (antisense GCAGAAACGCGGAGTCAAAA; listed as DNA, chemistry not fully specified) [compound 175309]", "%INHIB (human IGF-IR mRNA levels)": 72}
{"substance": "175317 (antisense CGAAGGAAACAATACTCCGA; listed as DNA, chemistry not fully specified) [compound 175317]", "%INHIB (human IGF-IR mRNA levels)": 84}
{"substance": "323721 (antisense GTTGTACTCATTGTTGATGG; listed as DNA, chemistry not fully specified) [compound 323721]", "%INHIB (human IGF-IR mRNA levels)": 73}
{"substance": "175296 (antisense ATGCTGGTAAACAAGAGCCC; listed as DNA, chemistry not fully specified) [compound 175296]", "%INHIB (human IGF-IR mRNA levels)": 57}
{"substance": "323753 (antisense AAGAACACAGGATCTGTCCA; listed as DNA, chemistry not fully specified) [compound 323753]", "%INHIB (human IGF-IR mRNA levels)": 38}
{"substance": "323730 (antisense CCACCATGTTCCAGCTGTTG; listed as DNA, chemistry not fully specified) [compound 323730]", "%INHIB (human IGF-IR mRNA levels)": 78}
{"substance": "175312 (antisense TTTCAAACCCGGAGAGGCAG; listed as DNA, chemistry not fully specified) [compound 175312]", "%INHIB (human IGF-IR mRNA levels)": 31}
{"substance": "323697 (antisense TGATAGTCGTTGCGGATGTC; listed as DNA, chemistry not fully specified) [compound 323697]", "%INHIB (human IGF-IR mRNA levels)": 73}
{"substance": "323738 (antisense TGTTCCTGCTTCGGCTGGAC; listed as DNA, chemistry not fully specified) [compound 323738]", "%INHIB (human IGF-IR mRNA levels)": 76}
{"substance": "323746 (antisense TTCTCAGCCTCGTGGTTGCA; listed as DNA, chemistry not fully specified) [compound 323746]", "%INHIB (human IGF-IR mRNA levels)": 62}
{"substance": "323755 (antisense GGAACGTACACATCAGCAGC; listed as DNA, chemistry not fully specified) [compound 323755]", "%INHIB (human IGF-IR mRNA levels)": 36}
{"substance": "323703 (antisense GTCCTCGGCCTTGGAGATGA; listed as DNA, chemistry not fully specified) [compound 323703]", "%INHIB (human IGF-IR mRNA levels)": 71}
{"substance": "175292 (antisense AGTCTCAAACTCAGTCTTCG; listed as DNA, chemistry not fully specified) [compound 175292]", "%INHIB (human IGF-IR mRNA levels)": 78}
{"substance": "323709 (antisense CAATATCCTTGAGATTGGTC; listed as DNA, chemistry not fully specified) [compound 323709]", "%INHIB (human IGF-IR mRNA levels)": 29}
{"substance": "175299 (antisense AATCTGCCTAGGCGAGGAAA; listed as DNA, chemistry not fully specified) [compound 175299]", "%INHIB (human IGF-IR mRNA levels)": 78}
{"substance": "323719 (antisense TGTTGATGGTGGTCTTCTCA; listed as DNA, chemistry not fully specified) [compound 323719]", "%INHIB (human IGF-IR mRNA levels)": 66}
{"substance": "175323 (antisense AATGAATGAGCGGCTCCCCC; listed as DNA, chemistry not fully specified) [compound 175323]", "%INHIB (human IGF-IR mRNA levels)": 82}
{"substance": "323698 (antisense GCTGCTGATAGTCGTTGCGG; listed as DNA, chemistry not fully specified) [compound 323698]", "%INHIB (human IGF-IR mRNA levels)": 72}
{"substance": "323714 (antisense ATGTAGTTATTGGACACCGC; listed as DNA, chemistry not fully specified) [compound 323714]", "%INHIB (human IGF-IR mRNA levels)": 64}
{"substance": "323702 (antisense CGGCCTTGGAGATGAGCAGG; listed as DNA, chemistry not fully specified) [compound 323702]", "%INHIB (human IGF-IR mRNA levels)": 66}
{"substance": "323763 (antisense ATCCAAGGATCAGCAGGTCG; listed as DNA, chemistry not fully specified) [compound 323763]", "%INHIB (human IGF-IR mRNA levels)": 69}
{"substance": "175325 (antisense AAGGTCACAGCCGAGGCGAG; listed as DNA, chemistry not fully specified) [compound 175325]", "%INHIB (human IGF-IR mRNA levels)": 55}
{"substance": "323708 (antisense TCCTTGAGATTGGTCATCTC; listed as DNA, chemistry not fully specified) [compound 323708]", "%INHIB (human IGF-IR mRNA levels)": 41}
{"substance": "323704 (antisense CGGTAGTCCTCGGCCTTGGA; listed as DNA, chemistry not fully specified) [compound 323704]", "%INHIB (human IGF-IR mRNA levels)": 71}
{"substance": "175293 (antisense GTTAATGCTGGTAAACAAGA; listed as DNA, chemistry not fully specified) [compound 175293]", "%INHIB (human IGF-IR mRNA levels)": 40}
{"substance": "323712 (antisense TCTCAATCCTGATGGCCCCC; listed as DNA, chemistry not fully specified) [compound 323712]", "%INHIB (human IGF-IR mRNA levels)": 56}
{"substance": "175321 (antisense TCGGCCTCCATTTTCAAACC; listed as DNA, chemistry not fully specified) [compound 175321]", "%INHIB (human IGF-IR mRNA levels)": 78}
{"substance": "175302 (antisense CCTCCATTTTCAAACCCGGA; listed as DNA, chemistry not fully specified) [compound 175302]", "%INHIB (human IGF-IR mRNA levels)": 93}
{"substance": "323717 (antisense CTGGACACAGGTCCCCACAT; listed as DNA, chemistry not fully specified) [compound 323717]", "%INHIB (human IGF-IR mRNA levels)": 45}
{"substance": "323742 (antisense TCCTTGTTATCCACTCTGCT; listed as DNA, chemistry not fully specified) [compound 323742]", "%INHIB (human IGF-IR mRNA levels)": 58}
